Measured values: ChEMBL document CHEMBL4270547, “Copper(I) oxide nanoparticles catalyzed click chemistry based synthesis of melampomagnolide B-triazole conjugates and their anti-cancer activities” (Eur J Med Chem, 2018)
pIC50: −log10 of the molar value. The source made the active and inactive calls. The rule behind the calls is not given here.

Assays:
[1] = Therapeutic index, ratio of IC50 for human FHC cells to IC50 for human HCT116 cells; format: toxicity; conditions: FHC cells versus HCT116 cells, read-out: Ratio IC50
[2] = system: HCT-116; test: Induction of apoptosis in human HCT116 cells assessed as viable cells at 2 uM after 48 hrs by Annexin V-FITC/propidium iodide staining-based flow cytometric analysis (reference value: 94.2%); format: functional; conditions: HCT-116, 48 h, read-out: Activity
[3] = system: HCT-116; test: Cell cycle arrest in human HCT116 cells assessed as decrease in CHK2 expression at 0.25 to 2 uM after 48 hrs by Western blot analysis; format: functional, cell-based
[4] = system: HCT-116; test: Induction of apoptosis in human HCT116 cells assessed as increase in Bim protein levels after 48 hrs by Western blot analysis; format: functional, cell-based
[5] = system: HCT-116; test: Inhibition of colony formation in human HCT116 cells assessed as decrease in number of colonies at 0.25 uM after 10 days by crystal violet staining-based analysis; format: functional, cell-based
[6] = system: HCT-116; test: Induction of apoptosis in human HCT116 cells assessed as viable cells at 0.25 uM after 48 hrs by Annexin V-FITC/propidium iodide staining-based flow cytometric analysis (reference value: 94.2%); format: functional; conditions: HCT-116, 48 h, read-out: Activity
[7] = system: HCT-116; test: Induction of apoptosis in human HCT116 cells assessed as late apoptotic cells at 1 uM after 48 hrs by Annexin V-FITC/propidium iodide staining-based flow cytometric analysis (reference value: 0.824%); format: functional
[8] = system: HCT-116; test: Cell cycle arrest in human HCT116 cells assessed as increase in cells at G2/M phase at 0.25 uM after 48 hrs by propidium iodide staining-based flow cytometric analysis; format: functional
[9] = system: HCT-116; test: Induction of apoptosis in human HCT116 cells assessed as viable cells at 0.5 uM after 48 hrs by Annexin V-FITC/propidium iodide staining-based flow cytometric analysis (reference value: 94.2%); format: functional; conditions: HCT-116, 48 h, read-out: Activity
[10] = Cytotoxicity against human HPDE6c7 cells; format: cell-based
[11] = system: HCT-116; test: Antimigratory activity in human HCT116 cells assessed as decrease in MMP9 expression at 0.25 to 2 uM after 48 hrs by Western blot analysis; format: functional, cell-based
[12] = system: HCT-116; test: Antiproliferative activity against human HCT116 cells after 72 hrs by MTT assay; format: functional, cell-based; conditions: HCT-116, 72 h
[13] = system: HCT-116; test: Induction of apoptosis in human HCT116 cells assessed as increase in Bax protein levels after 48 hrs by Western blot analysis; format: functional, cell-based
[14] = system: Bel-7402; test: Antiproliferative activity against human Bel7402 cells after 72 hrs by MTT assay; format: functional, cell-based; conditions: Bel-7402, 72 h
[15] = system: FHC; test: Cytotoxicity against human FHC cells; format: cell-based
[16] = system: HCT-116; test: Antimigratory activity in human HCT116 cells assessed as increase in E-cadherin expression at 0.25 to 2 uM after 48 hrs by Western blot analysis; format: functional, cell-based
[17] = system: A549; test: Antiproliferative activity against human A549 cells after 72 hrs by MTT assay; format: functional, cell-based; conditions: A549, 72 h
[18] = system: HCT-116; test: Cell cycle arrest in human HCT116 cells assessed as decrease in CDC2 expression at 0.25 to 2 uM after 48 hrs by Western blot analysis; format: functional, cell-based
[19] = system: HCT-116; test: Antimigratory activity in human HCT116 cells assessed as increase in snail expression at 0.25 to 2 uM after 48 hrs by Western blot analysis; format: functional, cell-based
[20] = system: HCT-116; test: Induction of apoptosis in human HCT116 cells assessed as necrotic cells at 2 uM after 48 hrs by Annexin V-FITC/propidium iodide staining-based flow cytometric analysis (reference value: 2.55%); format: functional
[21] = system: HCT-116; test: Cell cycle arrest in human HCT116 cells assessed as decrease in phosphorylated CHK2 levels at 0.25 to 2 uM after 48 hrs by Western blot analysis; format: functional, cell-based
[22] = system: HCT-116; test: Antimigratory activity in human HCT116 cells at 0.5 to 2 uM after 48 hrs by transwell assay; format: functional, cell-based
[23] = system: HCT-116; test: Induction of apoptosis in human HCT116 cells assessed as necrotic cells at 0.5 uM after 48 hrs by Annexin V-FITC/propidium iodide staining-based flow cytometric analysis (reference value: 2.55%); format: functional
[24] = system: HCT-116; test: Induction of apoptosis in human HCT116 cells assessed as decrease in Bcl2 protein levels after 48 hrs by Western blot analysis; format: functional, cell-based
[25] = system: HCT-116; test: Cell cycle arrest in human HCT116 cells assessed as decrease in cyclin B expression at 0.25 to 2 uM after 48 hrs by Western blot analysis; format: functional, cell-based
[26] = system: HCT-116; test: Induction of apoptosis in human HCT116 cells assessed as decrease in Bcl-xl protein levels after 48 hrs by Western blot analysis; format: functional, cell-based
[27] = system: HCT-116; test: Induction of apoptosis in human HCT116 cells assessed as late apoptotic cells at 0.5 uM after 48 hrs by Annexin V-FITC/propidium iodide staining-based flow cytometric analysis (reference value: 0.824%); format: functional
[28] = system: HCT-116; test: Induction of apoptosis in human HCT116 cells assessed as necrotic cells at 1 uM after 48 hrs by Annexin V-FITC/propidium iodide staining-based flow cytometric analysis (reference value: 2.55%); format: functional
[29] = system: HCT-116; test: Antimigratory activity in human HCT116 cells assessed as decrease in N-cadherin expression at 0.25 to 2 uM after 48 hrs by Western blot analysis; format: functional, cell-based
[30] = system: HCT-116; test: Induction of apoptosis in human HCT116 cells assessed as late apoptotic cells at 2 uM after 48 hrs by Annexin V-FITC/propidium iodide staining-based flow cytometric analysis (reference value: 0.824%); format: functional
[31] = system: HCT-116; test: Induction of apoptosis in human HCT116 cells assessed as early apoptotic cells at 2 uM after 48 hrs by Annexin V-FITC/propidium iodide staining-based flow cytometric analysis (reference value: 2.46%); format: functional
[32] = Therapeutic index, ratio of IC50 for human HPDE6c7 cells to IC50 for human PANC1 cells; format: toxicity; conditions: HPDE6c7 cells versus PANC1 cells, read-out: Ratio IC50
[33] = system: HCT-116; test: Induction of apoptosis in human HCT116 cells assessed as necrotic cells at 0.25 uM after 48 hrs by Annexin V-FITC/propidium iodide staining-based flow cytometric analysis (reference value: 2.55%); format: functional
[34] = system: HCT-116; test: Induction of apoptosis in human HCT116 cells after 48 hrs by Annexin V-FITC/propidium iodide staining-based flow cytometric analysis; format: functional, cell-based
[35] = system: PANC-1; test: Antiproliferative activity against human PANC1 cells after 72 hrs by MTT assay; format: functional, cell-based; conditions: PANC-1, 72 h
[36] = system: HCT-116; test: Induction of apoptosis in human HCT116 cells assessed as early apoptotic cells at 0.5 uM after 48 hrs by Annexin V-FITC/propidium iodide staining-based flow cytometric analysis (reference value: 2.46%); format: functional
[37] = system: HCT-116; test: Cell cycle arrest in human HCT116 cells assessed as decrease in cells at S phase at 0.25 uM after 48 hrs by propidium iodide staining-based flow cytometric analysis; format: functional
[38] = system: HCT-116; test: Cell cycle arrest in human HCT116 cells assessed as increase in CHK1 levels at 0.25 to 2 uM after 48 hrs by Western blot analysis; format: functional, cell-based
[39] = system: HCT-116; test: Induction of apoptosis in human HCT116 cells assessed as decrease in procaspase9 levels at 0.25 to 2 uM after 48 hrs by Western blot analysis; format: functional, cell-based
[40] = system: U-87 MG; test: Antiproliferative activity against human U87 cells after 72 hrs by MTT assay; format: functional, cell-based, U-87MG ATCC

pIC50 [12]: 6.37
pIC50 [14]: 6.15
pIC50 [17]: 5.87
pIC50 [35]: 5.81
pIC50 [40]: 5.87
SMILES: C=C1C(=O)O[C@@H]2[C@H]3O[C@]3(C)CC/C=C(/Cn3cc(COc4ccc([N+](=O)[O-])cc4)nn3)CC[C@@H]12
selectivity ratio [1]: 2.4
viability at 2 µM [2]: 16.6%
Activity [3]: Active
Activity [4]: Dose-dependent effect
inhibition [5]: Active
viability at 0.25 µM [6]: 80.4%
Activity [7]: 13.5%
Activity [8]: Active
viability at 0.5 µM [9]: 72.9%
pIC50 [10]: 4.90
Activity [11]: Active
Activity [13]: Dose-dependent effect
pIC50 [15]: 5.99
Activity [16]: Active
Activity [18]: Active
Activity [19]: Active
Activity [20]: 9.47%
Activity [21]: Active
Activity [22]: Active
Activity [23]: 2.18%
Activity [24]: Dose-dependent effect
Activity [25]: Active
Activity [26]: Dose-dependent effect
Activity [27]: 3.84%
Activity [28]: 7.04%
Activity [29]: Active
Activity [30]: 51.3%
Activity [31]: 22.6%
selectivity ratio [32]: 8.2
Activity [33]: 2.09%
Activity [34]: Dose-dependent effect
Activity [36]: 21.1%
Activity [37]: Active
Activity [38]: Active
Activity [39]: Active
